One block for each compound: values may come before it.
Legend:
PDE2 = target: T1, PDE2 (Homo sapiens, UniProt O00408); experiment: PDE2 enzyme inhibition assay; format: biochemical; settings: 1% DMSO vehicle
T1 construct: PDE2 partially purified from human platelets was used; from tissue; host or cells: human platelets
Text: (§1) In this example, a racemic mixture of monochloroflosequinan and the sulfone derivative of monochloroflosequinan were independently subjected to biochemical enzyme assays to determine their respective percent inhibition of a variety of phosphodiesterases (PDE1-PDE6). The methods used have been adapted from those described in the scientific literature, see Hidaka and Asano “Human blood platelet 3′:5′ cyclic nucleotide phosphodiesterase. Isolation of low-Km and high Km phosphodiesterase.” Biochem. Biophys. […] Unhydrolyzed cAMP was bound to AGI-X2 resin, and the remaining [^3H]adenosine in the aqueous phase was quantitated by scintillation counting. • PDE2: PDE2 partially purified from human platelets was used. […] Unhydrolyzed cAMP was bound to AGI-X2 resin, and the remaining [^3H]adenosine in the aqueous phase was quantitated by scintillation counting. • PDE3: PDE3 partially purified from human platelets was used. […] Unhydrolyzed cAMP was bound to AGI-X2 resin, and the remaining [^3H]adenosine in the aqueous phase was quantitated by scintillation counting. • PDE4: PDE4 partially purified from human U-937 pronocytic cells was used. […] Unhydrolyzed cAMP was bound to AGI-X2 resin, and the remaining [^3H]adenosine in the aqueous phase was quantitated by scintillation counting. • PDE5: PDE5 partially purified from human platelets was used. […]

PDE1 = target: T2, PDE1 (Bos taurus, UniProt P14100); experiment: PDE1 enzyme inhibition assay; format: biochemical, bovine; settings: 1% DMSO vehicle
T2 construct: PDE1 partially purified from bovine heart was used; from tissue; host or cells: bovine heart
Text: In this example, a racemic mixture of monochloroflosequinan and the sulfone derivative of monochloroflosequinan were independently subjected to biochemical enzyme assays to determine their respective percent inhibition of a variety of phosphodiesterases (PDE1-PDE6). The methods used have been adapted from those described in the scientific literature, see Hidaka and Asano “Human blood platelet 3′:5′ cyclic nucleotide phosphodiesterase. Isolation of low-Km and high Km phosphodiesterase.” Biochem. Biophys. Acta 429:485 (1976); Nicholoson et al. “Differential modulation of tissue function and therapeutic potential of selective inhibitors of cyclic nucleotide phosphodiesterase isoenzymes” Trends Pharmacol. Sci. 12:19 (1991); Cortijo et al. “Investigation into the role of phosphodiesterase IV in bronchorelaxation, including studies with hyman bronchus.” Br. J. Pharmacol. 108:562 (1993); Baehr et al. “Isolation and characterization of cGMP phosphodiesterase from bovine rod outer segments.” J. Biol. Chem. 254:11669 (1979) and Gillespie and Beavo “Inhibition and stimulation of photoreceptor phosphodiesterase by dipyridamole and M&B 22,948” Molecular Pharm. 36:773 (1989). A brief summary of the conditions for each enzyme assay is provided below: • PDE1: PDE1 partially purified from bovine heart was used. The compounds were independently incubated with 13 μg PDE1 enzyme, 1.01 μM [^3H]cAMP+cAMP and CaCl2/calmodulin in Tris buffer pH 7.5 for 20 minutes at either 25° C. or 30° C. The reaction was terminated by boiling for 2 minutes, and the resulting AMP was converted to adenosine by addition of 10 mg/ml snake venom nucleotidase and further incubation at 30° C. for 10 minutes. Unhydrolyzed cAMP was bound to AGI-X2 resin, and the remaining [^3H]adenosine in the aqueous phase was quantitated by scintillation counting. • PDE2: PDE2 partially purified from human platelets was used. The compounds were independently incubated with 23 μg PDE2 enzyme, 25.1 μM [^3H]cAMP+cAMP in Tris buffer pH 7.5 for 20 minutes at either 25° C. or 30° C. The reaction was terminated by boiling for 2 minutes, and the resulting AMP was converted to adenosine by addition of 10 mg/ml snake venom nucleotidase and further incubation at 30° C. for 10 minutes. Unhydrolyzed cAMP was bound to AGI-X2 resin, and the remaining [^3H]adenosine in the aqueous phase was quantitated by scintillation counting. • PDE3: PDE3 partially purified from human platelets was used. The compounds were independently incubated with 13 ug PDE3 enzyme and 1.01 μM [^3H]cAMP+cAMP in Tris buffer pH 7.5 for 20 minutes at either 25° C. or 30° C. The reaction was terminated by boiling for 2 minutes, and the resulting AMP was converted to adenosine by addition of 10 mg/ml snake venom nucleotidase and further incubation at 30° C. for 10 minutes. Unhydrolyzed cAMP was bound to AGI-X2 resin, and the remaining [^3H]adenosine in the aqueous phase was quantitated by scintillation counting. • PDE4: PDE4 partially purified from human U-937 pronocytic cells was used. The compounds were independently incubated with 20 μg PDE4 enzyme and 1.01 μM [^3H]cAMP+cAMP in Tris buffer pH 7.5 for 20 minutes at either 25° C. or 30° C. […] Unhydrolyzed cAMP was bound to AGI-X2 resin, and the remaining [^3H]adenosine in the aqueous phase was quantitated by scintillation counting. • PDE5: PDE5 partially purified from human platelets was used. […]

PDE3 = target: T3, PDE3 (Homo sapiens, UniProt Q14432); experiment: PDE3 enzyme inhibition assay; format: biochemical; settings: 1% DMSO vehicle
T3 construct: PDE3 partially purified from human platelets was used; from tissue; host or cells: human platelets
T3 sequence (Q14432 whole entry): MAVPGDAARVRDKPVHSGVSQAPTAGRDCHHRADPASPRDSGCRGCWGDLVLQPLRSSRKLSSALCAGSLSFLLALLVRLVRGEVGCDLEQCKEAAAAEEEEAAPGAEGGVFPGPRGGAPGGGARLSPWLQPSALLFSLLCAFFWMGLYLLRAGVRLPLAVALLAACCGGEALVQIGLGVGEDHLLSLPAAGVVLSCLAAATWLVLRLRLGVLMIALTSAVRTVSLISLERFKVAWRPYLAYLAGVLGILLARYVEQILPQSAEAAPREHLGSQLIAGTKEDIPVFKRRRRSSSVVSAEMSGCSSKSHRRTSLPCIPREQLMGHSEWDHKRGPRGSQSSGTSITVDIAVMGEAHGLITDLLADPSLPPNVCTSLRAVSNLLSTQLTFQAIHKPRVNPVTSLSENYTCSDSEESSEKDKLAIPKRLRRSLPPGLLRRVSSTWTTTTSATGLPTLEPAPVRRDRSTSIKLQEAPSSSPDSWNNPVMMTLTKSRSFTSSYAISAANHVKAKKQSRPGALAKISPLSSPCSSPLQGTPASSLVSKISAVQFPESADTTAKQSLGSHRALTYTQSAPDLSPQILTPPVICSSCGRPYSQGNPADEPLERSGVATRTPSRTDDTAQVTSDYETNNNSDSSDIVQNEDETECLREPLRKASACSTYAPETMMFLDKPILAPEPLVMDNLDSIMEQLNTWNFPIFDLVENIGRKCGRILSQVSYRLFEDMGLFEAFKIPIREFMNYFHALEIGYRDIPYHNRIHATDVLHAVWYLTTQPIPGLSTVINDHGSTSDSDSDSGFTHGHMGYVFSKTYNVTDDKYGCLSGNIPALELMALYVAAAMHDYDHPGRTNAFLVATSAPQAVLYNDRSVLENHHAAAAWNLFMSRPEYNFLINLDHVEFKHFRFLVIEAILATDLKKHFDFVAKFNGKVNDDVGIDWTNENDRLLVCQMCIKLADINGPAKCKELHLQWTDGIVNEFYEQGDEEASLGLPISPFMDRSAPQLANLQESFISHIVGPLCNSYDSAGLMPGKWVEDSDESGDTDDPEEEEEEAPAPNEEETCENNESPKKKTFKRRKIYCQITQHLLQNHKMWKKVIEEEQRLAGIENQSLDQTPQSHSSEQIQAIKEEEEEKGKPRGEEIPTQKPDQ
Text: In this example, a racemic mixture of monochloroflosequinan and the sulfone derivative of monochloroflosequinan were independently subjected to biochemical enzyme assays to determine their respective percent inhibition of a variety of phosphodiesterases (PDE1-PDE6). The methods used have been adapted from those described in the scientific literature, see Hidaka and Asano “Human blood platelet 3′:5′ cyclic nucleotide phosphodiesterase. Isolation of low-Km and high Km phosphodiesterase.” Biochem. Biophys. Acta 429:485 (1976); Nicholoson et al. “Differential modulation of tissue function and therapeutic potential of selective inhibitors of cyclic nucleotide phosphodiesterase isoenzymes” Trends Pharmacol. Sci. 12:19 (1991); Cortijo et al. “Investigation into the role of phosphodiesterase IV in bronchorelaxation, including studies with hyman bronchus.” Br. J. Pharmacol. 108:562 (1993); Baehr et al. “Isolation and characterization of cGMP phosphodiesterase from bovine rod outer segments.” J. Biol. Chem. 254:11669 (1979) and Gillespie and Beavo “Inhibition and stimulation of photoreceptor phosphodiesterase by dipyridamole and M&B 22,948” Molecular Pharm. 36:773 (1989). A brief summary of the conditions for each enzyme assay is provided below: • PDE1: PDE1 partially purified from bovine heart was used. The compounds were independently incubated with 13 μg PDE1 enzyme, 1.01 μM [^3H]cAMP+cAMP and CaCl2/calmodulin in Tris buffer pH 7.5 for 20 minutes at either 25° C. or 30° C. The reaction was terminated by boiling for 2 minutes, and the resulting AMP was converted to adenosine by addition of 10 mg/ml snake venom nucleotidase and further incubation at 30° C. for 10 minutes. Unhydrolyzed cAMP was bound to AGI-X2 resin, and the remaining [^3H]adenosine in the aqueous phase was quantitated by scintillation counting. • PDE2: PDE2 partially purified from human platelets was used. The compounds were independently incubated with 23 μg PDE2 enzyme, 25.1 μM [^3H]cAMP+cAMP in Tris buffer pH 7.5 for 20 minutes at either 25° C. or 30° C. […] Unhydrolyzed cAMP was bound to AGI-X2 resin, and the remaining [^3H]adenosine in the aqueous phase was quantitated by scintillation counting. • PDE3: PDE3 partially purified from human platelets was used. […] Unhydrolyzed cAMP was bound to AGI-X2 resin, and the remaining [^3H]adenosine in the aqueous phase was quantitated by scintillation counting. • PDE4: PDE4 partially purified from human U-937 pronocytic cells was used. […] Unhydrolyzed cAMP was bound to AGI-X2 resin, and the remaining [^3H]adenosine in the aqueous phase was quantitated by scintillation counting. • PDE5: PDE5 partially purified from human platelets was used. […]

PDE5 = target: T4, PDE5 (Homo sapiens, UniProt O76074); experiment: PDE5 enzyme inhibition assay; format: biochemical; settings: 25° C., 1% DMSO vehicle
T4 construct: PDE5 partially purified from human platelets was used; from tissue; host or cells: human platelets
Text: as §1

T1 sequence (O00408 whole entry): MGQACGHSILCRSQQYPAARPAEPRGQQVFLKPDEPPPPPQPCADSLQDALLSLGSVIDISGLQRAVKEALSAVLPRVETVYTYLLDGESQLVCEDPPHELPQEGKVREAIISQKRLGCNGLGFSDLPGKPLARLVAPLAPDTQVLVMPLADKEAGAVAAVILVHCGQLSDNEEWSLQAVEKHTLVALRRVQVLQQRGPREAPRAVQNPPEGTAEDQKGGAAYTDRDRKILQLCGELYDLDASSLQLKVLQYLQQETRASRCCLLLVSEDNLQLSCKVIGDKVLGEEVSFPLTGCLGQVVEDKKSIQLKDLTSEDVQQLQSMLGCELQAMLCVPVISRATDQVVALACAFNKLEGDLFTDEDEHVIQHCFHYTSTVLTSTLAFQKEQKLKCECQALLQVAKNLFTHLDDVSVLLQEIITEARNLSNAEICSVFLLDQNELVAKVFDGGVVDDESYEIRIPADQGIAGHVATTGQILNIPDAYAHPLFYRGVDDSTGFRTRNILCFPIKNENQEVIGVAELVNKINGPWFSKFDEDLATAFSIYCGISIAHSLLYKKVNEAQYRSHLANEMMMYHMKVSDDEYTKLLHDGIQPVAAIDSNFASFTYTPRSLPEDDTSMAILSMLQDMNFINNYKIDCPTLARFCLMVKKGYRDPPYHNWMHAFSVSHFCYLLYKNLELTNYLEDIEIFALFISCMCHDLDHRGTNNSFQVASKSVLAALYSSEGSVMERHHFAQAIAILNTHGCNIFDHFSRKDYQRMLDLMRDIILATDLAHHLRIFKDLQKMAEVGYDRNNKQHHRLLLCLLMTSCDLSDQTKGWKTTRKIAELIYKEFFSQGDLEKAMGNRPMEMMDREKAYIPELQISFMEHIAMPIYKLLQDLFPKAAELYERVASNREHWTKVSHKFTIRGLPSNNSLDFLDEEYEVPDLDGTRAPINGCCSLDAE

inhibition of PDE2 (PDE2; 100 uM, 30° C.): Significant inhibition
inhibition of PDE1 (PDE1; 100 uM, 30° C.): Significant inhibition
inhibition of PDE3 (PDE3; 100 uM, 30° C.): Significant inhibition
SMILES: Cn1cc([S+]([O-])CCl)c(=O)c2ccc(F)cc21 (racemic) [monochloroflosequinan, 3-chloromethylsulfinyl-7-fluoro-1-methyl-4-quinolone]

inhibition of PDE2 (PDE2; 200 μM, 25° C.): greater than 50%
inhibition of PDE1 (PDE1; 200 μM, 25° C.): greater than 50%
inhibition of PDE5 (PDE5; 200 μM): greater than 50%
inhibition of PDE3 (PDE3; 200 μM, 25° C.): greater than 50%
SMILES: Cn1cc([S@+]([O-])CCl)c(=O)c2ccc(F)cc21 (single isomer, unassigned) [(+)-enantiomer of monochloroflosequinan]

inhibition of PDE1 (PDE1; 200 μM, 25° C.): greater than 50%
inhibition of PDE3 (PDE3; 200 μM, 25° C.): greater than 50%
SMILES: Cn1cc([S@@+]([O-])CCl)c(=O)c2ccc(F)cc21 (single isomer, unassigned) [(−)-enantiomer of monochloroflosequinan]

inhibition of PDE1 (PDE1; varying concentrations, 25° C.): greater than 50%
inhibition of PDE5 (PDE5; varying concentrations): greater than 50%
inhibition of PDE3 (PDE3; varying concentrations, 25° C.): greater than 50%
SMILES: Cn1cc([S+]([O-])C(Cl)Cl)c(=O)c2ccc(F)cc21 (stereo not drawn) [dichloroflosequinan, 3-dichloromethylsulfinyl-7-fluoro-1-methyl-4-quinolone]

From patent US7041677B2, “Use of monochloroflosequinan in the treatment of sexual dysfunction” (R.T. Alamo Ventures I, LLC, priority 2002, dated 2006)
